Results on 81 compounds are retold here after the METLIN SMRT retention time set (Domingo-Almenara et al. 2019).

The nature of this data set: gradient 5% acetonitrile 3 min, to 50% in 2 min, to 85% in 15 min, held 3 min, 100 µL/min. The settings on record: column: Zorbax Extend-C18 2.1 x 50 mm; eluents: water / acetonitrile, 0.1% formic acid. The method in brief:
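Retention times of pure standards were taken from adduct peaks that were selected by computer and manually inspected. Over 3 months, mixtures of ~100 molecules were run by HPLC–quadrupole time-of-flight mass spectrometry in positive and negative ionization mode. The Zorbax Extend-C18 column (2.1 × 50 mm, 1.8 μm) ran at 100 μL/min in water and acetonitrile, each containing 0.1% formic acid, with 40 μL dead volume and 900 μL dwell volume.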
Compound `CCCn1nnc2cc(-c3noc(C4CC(=O)N(c5ccc(C)c(C)c5)C4)n3)ccc21` (stereo unspecified) registered an RP-LC retention time of 1020 s.

`CC(C)CCSc1nnc2c(S(=O)(=O)N3CCOCC3)cccn12` registered an RP-LC retention time of 810 s.

As to `CC1(C(=O)NC2CCCCCCC2)CN(S(C)(=O)=O)CC(=O)N1c1cccc(Cl)c1` (stereo unspecified), the RP-LC retention time amounted to 963 s.

In the case of `Cc1ncc([N+](=O)[O-])n1CC(O)CCl` (stereo unspecified), the RP-LC retention time was 677 s.

For the compound `COC(=O)C1=CN(c2ccc(C)cc2)c2ccccc2S1(=O)=O`, the RP-LC retention time stood at 862 s.

On to `CCn1ncc(C(=O)N2CCCn3ccnc3C2C(C)C)c1C` (stereo unspecified), for which the RP-LC retention time is 567 s.

In turn, `CC(=O)N1c2ccc(S(=O)(=O)N3CCCCC3)cc2CC1C(=O)NCCCc1ccccc1` (stereo unspecified) gave an RP-LC retention time of 917 s.

For `CC(C)(C)c1ccc(S(=O)(=O)N2CCCCC2C(=O)N2CCN(c3ccccc3F)CC2)cc1` (stereo unspecified), the RP-LC retention time turned out to be 1280 s.

Compound `CCCN(C)c1nccn2c(=O)n(CC(=O)Nc3cccc(C)c3C)nc12` returned an RP-LC retention time of 684 s.

`Cc1cc(=O)n2c(-c3cccc(NC(=O)c4sc(C)nc4C)c3)csc2n1`: the RP-LC retention time was 645 s.

`COc1ccc2cc(C(=O)Nc3ccc(F)cc3)[nH]c2c1` showed an RP-LC retention time of 910 s.

Turning to `CC(C)(Oc1ccc(Cl)cc1)C(=O)NCC1CCN(C(=O)Nc2ccc(F)cc2)CC1`, the RP-LC retention time is 874 s.

The compound `CC1CCCN(CC2CCN(S(=O)(=O)Cc3c(F)cccc3Cl)CC2)C1` (stereo unspecified) gave an RP-LC retention time of 685 s.

`O=C(NCc1ccco1)C1CCN(c2cncnc2N2CCCCC2)CC1` gave an RP-LC retention time of 646 s.

`O=C(NCC(=O)N1CCCc2ccccc21)c1ccoc1` returned an RP-LC retention time of 708 s.

Compound `Cc1ccc(-c2nc3cnccn3c2NCCC(=O)N(C)C)cc1` gave an RP-LC retention time of 622 s.

For the compound `CCC(C(=O)N1CCOCC1)n1c2ccccc2c2cnn(C)c(=O)c21` (stereo unspecified), the RP-LC retention time worked out at 764 s.

In the case of `Cc1cc(C(=O)N2CCC3(CC2)CC(C)(O)CCO3)c(C)o1` (stereo unspecified), the RP-LC retention time was 677 s.

Compound `COC(=O)c1sccc1NC(=O)Cn1c(C)cc(C)c(-c2nc(-c3ccc(C)cc3)no2)c1=O` registered an RP-LC retention time of 1110 s.

Regarding `CCOC(=O)C1=C(CN2CCC(C(=O)OCC)CC2)NC(=O)NC1c1ccc(Cl)cc1` (stereo unspecified), the RP-LC retention time turned out to be 673 s.

`CCSc1nnc(-c2nn(C)c3c2CN(S(=O)(=O)c2cc(Cl)ccc2OC)CC3)n1CC` displayed an RP-LC retention time of 975 s.

Take `O=C(c1cncc(Br)c1)N1CCC(c2nnc(-c3ccco3)s2)CC1`: the RP-LC retention time worked out at 682 s.

`COc1cc(NC(=O)CN2C(=O)C(O)(c3ccccc3)c3ccccc32)cc(OC)c1` (stereo unspecified): the RP-LC retention time came to 872 s.

For the compound `CCn1cc(CC(=O)NCCC(C)C)c2cccnc21`, the RP-LC retention time was found to be 706 s.

In the case of `COCCCNC(=O)C(C)n1nc(C)c2c(C)n(-c3ccccc3)nc2c1=O` (stereo unspecified), the RP-LC retention time is 686 s.

Compound `O=C1CCC2(C(=O)NCC3CC3)CCCC=C2N1c1ccccc1` (stereo unspecified) registered an RP-LC retention time of 726 s.

Compound `Cc1cccc(NS(=O)(=O)c2c[nH]c3ncccc23)c1` returned an RP-LC retention time of 726 s.

Compound `COC(=O)c1sccc1S(=O)(=O)N1CCC(C(N)=O)(N2CCCCC2)CC1` registered an RP-LC retention time of 580 s.

In turn, `Nc1nc(Nc2ccccc2)n[nH]1` had an RP-LC retention time of 637 s.

Compound `CCn1cc(S(=O)(=O)N2CCC(Cc3nc(-c4ccncc4)n[nH]3)C2)cn1` (stereo unspecified) registered an RP-LC retention time of 578 s.

Turning to `O=C(Cn1cnc2nc(N3CCC(C(=O)NC4CC4)CC3)sc2c1=O)NCc1cccs1`, the RP-LC retention time turned out to be 618 s.

In the case of `CCCn1c(=O)c(-c2ccc(C(=O)NCC(C)C)cc2)nc2cccnc21`, the RP-LC retention time turned out to be 967 s.

The compound `O=C(Nc1cnn(-c2ncncc2N2CCCC2)c1)c1ccc(C(F)(F)F)cc1` returned an RP-LC retention time of 779 s.

Take `Cc1ccc(-n2cc3c(c(C(=O)NCCCOC(C)C)c2=O)CC(C)(C)CC3=O)cc1`: the RP-LC retention time stood at 997 s.

`Cc1cccc(C)c1Nc1c(-c2ccc(F)cc2)nc2cnccn12` displayed an RP-LC retention time of 901 s.

The compound `O=C(Cn1cccc1-c1nnc(C2CC2)o1)NCc1ccc2c(c1)OCO2` gave an RP-LC retention time of 749 s.

Compound `COc1ccccc1OCCNC(=O)COc1ccc(NC(=O)C2CC2)cn1` came in with an RP-LC retention time of 708 s.

`O=C(CCn1cnc2cc(-c3noc(/C=C/c4ccccc4Cl)n3)ccc21)N1CCOCC1` showed an RP-LC retention time of 794 s.

As for `COc1ccc(-c2ncccc2CNS(=O)(=O)c2cc(C)cc(C)c2)cc1`, the RP-LC retention time came to 717 s.

The compound `Cc1ccc(-c2cc(C(=O)NC(C)C)n(C)c2)cc1` had an RP-LC retention time of 977 s.

`COCCc1noc(C2CN(C(=O)c3cnc(C)cn3)C2)n1` had an RP-LC retention time of 636 s.

In turn, `CN(C)C(=O)c1cc(=O)[nH]c2ccc(F)cc12` yielded an RP-LC retention time of 577 s.

`O=C(c1ccc2ncnc(N3CCCC3)c2c1)N1CCN(c2ccccc2)CC1`: the RP-LC retention time was 646 s.

`COCCNC(=O)C1CCN(c2nc3ccc(-c4ccc(OC)cc4)nc3s2)CC1` displayed an RP-LC retention time of 805 s.

Consider `Cc1ccc(-n2cccc2CC(=O)NC2CCCCC2)cc1`, for which the RP-LC retention time was determined as 1020 s.

On to `COc1ccc(Cc2noc(Cc3nnc(-c4cccc(Cl)c4)o3)n2)cc1`, for which the RP-LC retention time stood at 1010 s.

In the case of `COc1ccccc1NC(=O)Cn1c(C)nc2onc(C)c2c1=O`, the RP-LC retention time stood at 772 s.

`CC(C)c1ccc(-c2csc(NC(=O)c3ccncc3)n2)cc1` gave an RP-LC retention time of 989 s.

As to `Cc1cc(C(=O)NCC(C)C)c2cccc(C)c2n1`, the RP-LC retention time worked out at 697 s.

For the compound `CCCn1nc(CNC(=O)c2cccc3[nH]ccc23)c2ccccc21`, the RP-LC retention time was found to be 813 s.

As for `CCC(c1cccs1)N1C(=O)[C@H]2CN(S(=O)(=O)c3cccc(Cl)c3)C[C@H]2C1=O` (stereo partly specified), the RP-LC retention time was found to be 1060 s.

Consider `CCCNC(=O)CN1CCN(Cc2ccccc2)C1=O`, for which the RP-LC retention time came out at 675 s.

Regarding `Cc1nnc(-c2ccc3ccn(CC(=O)N4CCN(c5ccccc5F)CC4)c3c2)o1`, the RP-LC retention time is 867 s.

On to `CC1(C(=O)NCc2ccccc2)CCCN(C(=O)NCc2ccc(F)cc2)C1` (stereo unspecified), for which the RP-LC retention time is 831 s.

Take `CCc1noc2nc(C)n(CC(=O)NCc3ccc(OC)cc3)c(=O)c12`: the RP-LC retention time was 755 s.

As for `Cc1csc(-c2cc(S(=O)(=O)NC(C)(C)C)cn2CC(=O)N2CCCC2)n1`, the RP-LC retention time worked out at 1160 s.

`CC(C)NC(=O)N(CC(=O)N1CCc2sccc2C1COc1cccc(F)c1)C1CC1` (stereo unspecified) returned an RP-LC retention time of 942 s.

The compound `Cc1nccn1Cc1nc(-c2ccc(F)c(Cl)c2)no1` registered an RP-LC retention time of 654 s.

Compound `Cc1ccc(-c2nc3nc(C)c(CC(=O)NC(C)C)c(C)n3n2)cc1` showed an RP-LC retention time of 761 s.

As to `CCCc1c(C)nc2ncnn2c1N1CCN(c2ccccn2)CC1`, the RP-LC retention time worked out at 583 s.

The compound `COC(=O)Nc1nc(CC(=O)NCc2ccccc2Cl)cs1` yielded an RP-LC retention time of 667 s.

The compound `Cc1nc(-c2ccc(N3CCN(C(=O)c4ccc5c(c4)OCO5)CC3)nc2)sc1C` had an RP-LC retention time of 813 s.

Consider `COCC(=O)NC1CCN(c2ccc(C)cc2)C1=O` (stereo unspecified), for which the RP-LC retention time came to 666 s.

Turning to `CN(C)CCNc1oc(-c2ccc(COc3ccc(Cl)cc3)o2)nc1C#N`, the RP-LC retention time is 988 s.

In the case of `CN(C)S(=O)(=O)c1ccc2c(c1)N(CC(=O)NCCN1CCCC1)C(=O)C1CCCCN21` (stereo unspecified), the RP-LC retention time stood at 627 s.

On to `O=C(NCCc1c[nH]c2ccc(Cl)cc12)c1cc2n(n1)CCCN(Cc1ccc(Cl)cc1)C2=O`, for which the RP-LC retention time worked out at 998 s.

On to `Cc1nc2c(sc3nc(-c4ccccc4)ccc32)c(=O)n1CC(=O)NCc1ccccc1Cl`, for which the RP-LC retention time amounted to 1030 s.

Compound `CC(C)(C)C(=O)N1CCCC(c2ccnc(-c3ccccc3)n2)C1` (stereo unspecified) showed an RP-LC retention time of 1020 s.

As for `CC(=O)N1CCc2cc(N3CC(C(=O)Nc4cc(F)cc(F)c4)CC3=O)ccc21` (stereo unspecified), the RP-LC retention time stood at 772 s.

`CC1=NS(=O)(=O)N(Cc2ccccc2)C=C1C(=O)OCc1noc(-c2ccc(C)c(C)c2)n1` showed an RP-LC retention time of 1220 s.

The compound `Cc1ccc(NC(=O)NCC2CCOCC2)c(C)c1` returned an RP-LC retention time of 713 s.

In turn, `Cn1nc(-c2nnc(-c3ccccc3)o2)c2c1CCN(S(=O)(=O)c1ccc(F)cc1F)C2` yielded an RP-LC retention time of 955 s.

For `O=C(Nc1cccc(-c2cn3cccnc3n2)c1)c1ccccc1F`, the RP-LC retention time was 664 s.

Compound `CC(NC(=O)c1ccco1)c1nc(-c2ccc(N3CCCCCC3)cc2)no1` (stereo unspecified) yielded an RP-LC retention time of 1110 s.

On to `O=C(Nc1cc(-c2ccccn2)no1)c1ccc(F)cc1`, for which the RP-LC retention time turned out to be 795 s.

`O=C(CSc1ccc(-c2ccc3c(c2)OCO3)nn1)c1cccs1` registered an RP-LC retention time of 854 s.

In turn, `O=C1COc2cc(Cl)ccc2N1Cc1nc(-c2ccc(OC(F)(F)F)cc2)no1` showed an RP-LC retention time of 1220 s.

Compound `CN(C)c1ccc(/C=C/C(=O)c2ccccc2)cc1Br` showed an RP-LC retention time of 1170 s.

`O=C1C2CC=CCC2C(=O)N1c1ccc(N2CCN(c3ccccn3)CC2)c([N+](=O)[O-])c1` (stereo unspecified) came in with an RP-LC retention time of 676 s.

In the case of `CSc1ccc(-c2noc(CN3C(=O)COc4cc(Cl)ccc43)n2)cc1`, the RP-LC retention time worked out at 1170 s.

Compound `CCOc1ccc2nc(Nc3ncc4c(n3)CC(c3cccs3)CC4=O)nc(C)c2c1` (stereo unspecified) yielded an RP-LC retention time of 795 s.
